A short description of this data set: Toxicity in chick embryo measured per egg after 4 days. More on the design: species or system Gallus gallus. To be noted: chicken, 96 h.

The values below come from ChEMBL document CHEMBL1150730, “Secondary metabolites from Fusarium. Two new modified trichothecenes from Fusarium sporotrichioides MC-72083” (J Nat Prod, 1987).

As for `CC1=C[C@@H]2OC[C@]3(O)C(=O)CC[C@]3(C)[C@@]2(C)C[C@@H]1O`, the LD50 is over 10 µg.
The value for `CC1=C[C@@H]2OC[C@]3(O)C(=O)CC[C@]3(C)[C@@]2(C)C[C@H]1O` was over 10 µg.
